Literature values, collected in patent publication US20130108982A1, “Reshapable Device for Fixation at a Dental Site” (COLLDENT Y.A. LTD., priority 2007, published 2013).

Tests used:
[1] = system: bacteria

Row | SMILES | acute lethal dose of fluoride (F) (acute) | chronic toxicity (chronic) | antibacterial activity [1]
1 | F [fluoride] | 33 mg F/Kg body weight | 0.1 mg F/Kg | –
2 | [F][Sn][F] [stannous fluoride] | – | – | has shown antibacterial activity
